Consider 37 compounds from ChEMBL document CHEMBL5550123, “Discovery of novel pyridone-benzamide derivatives possessing a 1-methyl-2-benzimidazolinone moiety as potent EZH2 inhibitors for the treatment of B-cell lymphomas” (Bioorg Med Chem, 2024).

One data set has as its system KARPAS-422. Put plainly: Antiproliferative activity against human KARPAS-422 cells assessed as inhibition of cell growth measured after 72 hrs by CCK-8 method. It is filed as functional, cell-based. The note with it: KARPAS-422, 72 h.
The nature of data set [1]: Metabolic stability in human liver microsomes assessed as intrinsic clearance at 1 uM measured upto 60 mins in presence of NADPH by LC-MS/MS analysis. The note with it: read-out: CLH. The format is ADME, Microsome. In general terms: Microsomes from liver hold many membrane-bound enzymes, among them those of drug oxidation.
Data set [2] is described as follows: Metabolic stability in human liver microsomes assessed as half life at 1 uM measured upto 60 mins in presence of NADPH by LC-MS/MS analysis. The format is ADME, Microsome.
The nature of data set [3]: Inhibition of EZH2 Y641F mutant (unknown origin) preincubated for 15 mins followed by substrate addition and measured after 45 mins by AlphaLISA assay. Further details: species or system Homo sapiens. In general terms: Bead proximity is the source of the signal in Alpha formats.
Data set [4] is described as follows: Inhibition of EZH2 Y641N mutant (unknown origin) preincubated for 15 mins followed by substrate addition and measured after 45 mins by AlphaLISA assay. Further details: species or system Homo sapiens.

What is called IC50 is the midpoint of a concentration-inhibition curve. For `CCN(c1cc(-c2ccc3c(c2)n(C2CN(C)C2)c(=O)n3C)cc(C(=O)NCc2c(C)cc(C)[nH]c2=O)c1C)C1CCOCC1`, the IC50 in the data set on KARPAS-422 turned out to be 43.5 nM.

Regarding `CCN1CCC(n2c(=O)n(C)c3ccc(-c4cc(C(=O)NCc5c(C)cc(C)[nH]c5=O)c(C)c(N(CC)C5CCOCC5)c4)cc32)CC1`, in the data set with KARPAS-422, the IC50 turned out to be 32.8 nM.

`CCN(c1cc(-c2ccc3c(c2)n(C)c(=O)n3C2CCN(C3COC3)CC2)cc(C(=O)NCc2c(C)cc(C)[nH]c2=O)c1C)C1CCOCC1`: in the data set with KARPAS-422, the IC50 is 25.5 nM.

For the compound `CCN(c1cc(-c2ccc3c(c2)n(C)c(=O)n3C2CN(CC3CC3)C2)cc(C(=O)NCc2c(C)cc(C)[nH]c2=O)c1C)C1CCOCC1`, the IC50 with KARPAS-422 was found to be 39.7 nM.

Consider `CCN(c1cc(-c2ccc3c(c2)n(C)c(=O)n3C2CCOCC2)cc(C(=O)NCc2c(C)cc(C)[nH]c2=O)c1C)C1CCOCC1`, for which the IC50 in the data set with KARPAS-422 was determined as 49.5 nM.

On to `CCN(c1cc(-c2ccc3c(c2)n(C2CN(C4COC4)C2)c(=O)n3C)cc(C(=O)NCc2c(C)cc(C)[nH]c2=O)c1C)C1CCOCC1`, for which, in the data set on KARPAS-422, the IC50 was 154 nM.

For `CCN(c1cc(-c2ccc3c(c2)n(C)c(=O)n3C2CN(C)C2)cc(C(=O)NCc2c(C)cc(C)[nH]c2=O)c1C)C1CCOCC1`, in the data set with KARPAS-422, the IC50 came to 29.3 nM.

On to `CCN(c1cc(-c2ccc3c(c2)n(C)c(=O)n3C2CCN(C(=O)C3CC3)CC2)cc(C(=O)NCc2c(C)cc(C)[nH]c2=O)c1C)C1CCOCC1`, for which, in the data set on KARPAS-422, the IC50 was 27.8 nM.

Regarding `CCN(c1cc(-c2ccc3c(c2)n(C)c(=O)n3C2CCN(CC(F)(F)F)CC2)cc(C(=O)NCc2c(C)cc(C)[nH]c2=O)c1C)C1CCOCC1`, the IC50 in the data set with KARPAS-422 worked out at 52.8 nM.

With `CCN(c1cc(-c2ccc3c(c2)n(C)c(=O)n3C2CCN(C(C)=O)CC2)cc(C(=O)NCc2c(C)cc(C)[nH]c2=O)c1C)C1CCOCC1`, the 50% inhibitory concentration (IC50) in the data set on KARPAS-422 is 85.8 nM.

Consider `CCN(c1cc(-c2ccc3c(c2)n(C2CCN(C)CC2)c(=O)n3C)cc(C(=O)NCc2c(C)cc(C)[nH]c2=O)c1C)C1CCOCC1`, for which the IC50 in the data set with KARPAS-422 is 26.3 nM.

In the case of `CCN(c1cc(-c2ccc3c(c2)n(C)c(=O)n3C2CN(CC#N)C2)cc(C(=O)NCc2c(C)cc(C)[nH]c2=O)c1C)C1CCOCC1`, in the data set with KARPAS-422, the IC50 was determined as 58.2 nM.

With `CCN(c1cc(-c2ccc3c(c2)n(C)c(=O)n3C2CN(C(C)=O)C2)cc(C(=O)NCc2c(C)cc(C)[nH]c2=O)c1C)C1CCOCC1`, in the data set on KARPAS-422, the IC50 amounted to 145 nM.

Consider `CCN(c1cc(-c2ccc3c(c2)[nH]c(=O)n3C2CCOCC2)cc(C(=O)NCc2c(C)cc(C)[nH]c2=O)c1C)C1CCOCC1`, for which the IC50 in the data set with KARPAS-422 was found to be 51.2 nM.

Turning to `CCN(c1cc(-c2ccc3c(c2)n(C)c(=O)n3C2CCN(S(C)(=O)=O)CC2)cc(C(=O)NCc2c(C)cc(C)[nH]c2=O)c1C)C1CCOCC1`, the IC50 in the data set with KARPAS-422 turned out to be 68.4 nM.

As to `CCN(c1cc(-c2ccc3c(c2)n(C)c(=O)n3C2CCN(CC3CC3)CC2)cc(C(=O)NCc2c(C)cc(C)[nH]c2=O)c1C)C1CCOCC1`, in the data set with KARPAS-422, the IC50 came out at 24.6 nM.

For the compound `CCN(c1cc(-c2ccc3c(c2)n(CC)c(=O)n3C2CCOCC2)cc(C(=O)NCc2c(C)cc(C)[nH]c2=O)c1C)C1CCOCC1`, the IC50 in the data set with KARPAS-422 is 62.5 nM.

As to `CCN(c1cc(-c2ccc3c(c2)n(C)c(=O)n3C2CCN(CC(F)F)CC2)cc(C(=O)NCc2c(C)cc(C)[nH]c2=O)c1C)C1CCOCC1`, in the data set on KARPAS-422, the IC50 was found to be 50.6 nM.

For `CCN(c1cc(-c2ccc3c(c2)n(C)c(=O)n3C2CCN(C)CC2)cc(C(=O)NCc2c(C)cc(C)[nH]c2=O)c1C)C1CCOCC1`, the IC50 in the data set with KARPAS-422 is 18.4 nM.

For the compound `CCN(c1cc(-c2ccc3c(c2)n(C)c(=O)n3C2CCN(CC#N)CC2)cc(C(=O)NCc2c(C)cc(C)[nH]c2=O)c1C)C1CCOCC1`, the IC50 in the data set on KARPAS-422 amounted to 53.8 nM.

Take `CCN(c1cc(-c2ccc3c(c2)n(C2CCOCC2)c(=O)n3C)cc(C(=O)NCc2c(C)cc(C)[nH]c2=O)c1C)C1CCOCC1`: in the data set with KARPAS-422, the IC50 is 29.9 nM.

As to `CCN(c1cc(-c2ccc3c(c2)n(C)c(=O)n3C2COC2)cc(C(=O)NCc2c(C)cc(C)[nH]c2=O)c1C)C1CCOCC1`, the IC50 in the data set with KARPAS-422 stood at 57.4 nM.

As for `CCN(c1cc(-c2ccc3c(c2)n(C)c(=O)n3C2CCN(C)CC2)cc(C(=O)NCc2c(C)cc(C)[nH]c2=O)c1C)C1CCC(N(C)C2COC2)CC1` (stereo not given), in the data set on KARPAS-422, the IC50 was 23.2 nM.

Take `CCN(c1cc(-c2ccc3c(c2)n(C)c(=O)n3C2CCN(C)CC2)cc(C(=O)NCc2c(C)cc(C)[nH]c2=O)c1C)C1CCN(C2COC2)CC1`: the IC50 in the data set with KARPAS-422 came to 219 nM.

Consider `CCN(C)C1CCC(N(CC)c2cc(-c3ccc4c(c3)n(C)c(=O)n4C3CCN(C)CC3)cc(C(=O)NCc3c(C)cc(C)[nH]c3=O)c2C)CC1` (stereo not given), for which the IC50 in the data set with KARPAS-422 was found to be 26.4 nM.

In the case of `CCN(c1cc(-c2ccc3c(c2)n(C)c(=O)n3C2CCN(C)CC2)cc(C(=O)NCc2c(C)cc(C)[nH]c2=O)c1C)C1CCN(C)CC1`, the IC50 in the data set with KARPAS-422 was 173 nM.

In the case of `CCN(c1cc(-c2ccc3c(c2)n(C)c(=O)n3C2CCN(C)CC2)cc(C(=O)NCc2c(C)cc(C)[nH]c2=O)c1C)C1CCN(C(C)=O)CC1`, the IC50 in the data set on KARPAS-422 came to 105 nM.

As for `CCN1CC(n2c(=O)n(C)c3ccc(-c4cc(C(=O)NCc5c(C)cc(C)[nH]c5=O)c(C)c(N(CC)C5CCOCC5)c4)cc32)C1`, the IC50 in the data set with KARPAS-422 was determined as 52.9 nM.

In the case of `CCN(c1cc(-c2ccc3c(c2)n(C)c(=O)n3C2CCN(C)CC2)cc(C(=O)NCc2c(C)cc(C)[nH]c2=O)c1C)C1CCN(CC2CC2)CC1`, in the data set on KARPAS-422, the IC50 came to 159 nM.

`CCN(c1cc(-c2ccc3c(c2)n(C)c(=O)n3C2CN(CC(F)F)C2)cc(C(=O)NCc2c(C)cc(C)[nH]c2=O)c1C)C1CCOCC1`: the IC50 in the data set on KARPAS-422 was determined as 45.6 nM.

Broadly, the half-life is how long it takes for the measured level to halve. Regarding `CCN(c1cc(-c2ccc(CN3CCOCC3)cc2)cc(C(=O)NCc2c(C)cc(C)[nH]c2=O)c1C)C1CCOCC1` [TAZEMETOSTAT], in data set [1], the microsomal CLint at 1 µM stood at 174 µL/min/mg. Moreover, the half-life at 1 µM in data set [2] amounted to 0.133 h. Moreover, the IC50 in data set [3] was 0.37 nM; in the data set on KARPAS-422 it was 35 nM; in data set [4], 0.85 nM.

For the compound `CCN(C(=O)C1CC1)c1cc(-c2ccc3c(c2)n(C)c(=O)n3C2CCN(C)CC2)cc(C(=O)NCc2c(C)cc(C)[nH]c2=O)c1C`, the IC50 in the data set with KARPAS-422 came out at 29.8 nM.

`CCC(=O)N1CCC(n2c(=O)n(C)c3cc(-c4cc(C(=O)NCc5c(C)cc(C)[nH]c5=O)c(C)c(N(CC)C5CCOCC5)c4)ccc32)CC1`: in the data set on KARPAS-422, the IC50 stood at 37.7 nM.

Consider `CCN(c1cc(-c2ccc3c(c2)n(C)c(=O)n3C2CCN(C)CC2)cc(C(=O)NCc2c(C)cc(C)[nH]c2=O)c1C)C1CCC(N(C)CCOC)CC1` (stereo not given), for which, in data set [1], the microsomal CLint at 1 µM came to 9.38 µL/min/mg. Besides, the half-life at 1 µM in data set [2] was 2.46 h. Further, the IC50 in data set [3] came to 0.14 nM; in the data set on KARPAS-422, 9.63 nM; in data set [4], 0.17 nM.

Turning to `CCN(c1cc(-c2ccc3c(c2)n(C)c(=O)n3CCOC)cc(C(=O)NCc2c(C)cc(C)[nH]c2=O)c1C)C1CCOCC1`, the IC50 in the data set with KARPAS-422 amounted to 60.8 nM.

As to `CCN(c1cc(-c2ccc3c(c2)n(C)c(=O)n3C2CN(C(=O)C3CC3)C2)cc(C(=O)NCc2c(C)cc(C)[nH]c2=O)c1C)C1CCOCC1`, the IC50 in the data set on KARPAS-422 turned out to be 31.2 nM.

For the compound `CCN1CCC(n2c(=O)n(C)c3cc(-c4cc(C(=O)NCc5c(C)cc(C)[nH]c5=O)c(C)c(N(CC)C5CCOCC5)c4)ccc32)CC1`, the IC50 with KARPAS-422 was 23.5 nM.
